# In patent publication US9044491B2, “Method for improving blood flow using stilbenoid derivatives” (The Board of Trustees of the University of Arkansas, priority 2010, dated 2015):
# How the values were obtained:
# [1] = system: cecal ligation and puncture model (CLP) of sepsis-induced renal injury; assay: Renal microcirculation after CLP by intravital video microscopy; type: in vivo, mouse; conditions: for capillary perfusion / RBC velocity / volumetric blood flow: 18 hours after CLP
# Description: Control (sham) mice underwent surgery but not CLP. Fresh solutions of tRes were prepared in dimethyl sulfoxide as the vehicle (veh) and diluted in normal saline before use. Dextran and […] were administered to the penile vein to visualize the capillary vascular space and detect RNS generation, respectively. The left kidney was exposed by a flank incision and positioned on a glass stage with a fluorescent microscope equipped with an Axiocam HSm camera. Intravital Video Microscopy (IVVM) of 10 s intervals at 200× magnification were acquired from randomly selected, non-overlapping fields of view. Capillaries were randomly selected for the 10 sec videos and categorized as “continuous flow” where red blood cell (RBC) movement was continuous; “intermittent flow” where RBC movement stopped or reversed; or “no flow” where no RBC movement was detected as shown in FIG. 8. RBC velocity was calculated in continuously flowing capillaries by measuring the distance traveled by a single RBC over time, expressed in μm/s.
# [2] = system: CLP or Control (Sham) mice; assay: Renal arterial blood flow by Doppler flow probe; type: in vivo, mouse
# From the text: Under isoflurane anesthesia, the right kidney was exposed by flank incision and the renal artery and vein were carefully dissected from surrounding tissue with Dumont-5 forceps. The renal artery was isolated from the vein and a Transonic Systems (Ithaca, N.Y.) 0.5 PSL renal artery Doppler flow probe was positioned around the renal artery. The probe was calibrated in water using the zero and scale settings on the TS420 flowmeter (Transonic Systems). […] Body temperature was maintained at 36 to 37° C. with a heating lamp. Data were expressed in ml/min/g kidney weight.
# Renal blood flow was measured essentially as described above in Example 10 following CPL surgery or control treatment (no surgery). CPL-treated mice were administered 10 mg/kg of resveratrol, 2.5 mg/kg of resveratrol-3-sulfate, or vehicle. […] In fact, resveratrol-3-sulfate produced the same degree of reversal at 25% of the dose of resveratrol.
# [3] = at 6 hours after CLP, administration at 5.5 hours
smiles,measurement,setting,value
"Oc1ccc(/C=C/c2cc(O)cc(O)c2)cc1 [tRes, trans-resveratrol]",capillary perfusion,[1]; 10 mg/kg at 6 hours and second dose at 12 hours,prevented the change
same,RBC velocity,[1]; additional dose at 12 hours,complete restoration
same,volumetric blood flow,[1]; additional dose at 12 hours,complete restoration
same,RBC velocity,[1]; single dose,did not improve
same,volumetric blood flow,[1]; single dose,did not improve
same,capillary perfusion,[1]; single dose 10 mg/kg at 6 hours,unable to maintain perfusion
same,mean RBC velocity,[1]; at 6 h after CLP,improved
same,renal capillary volumetric blood flow,[1]; at 6 h after CLP,improved
same,most efficacious dose for capillary perfusion,[1]; [3],10 mg/kg
same,renal cortical peritubular capillary perfusion,[1]; [3],improved perfusion in a dose dependent manner
same,Renal Arterial Blood Flow (RBF),"[2]; CLP mice at 6 hours, 10 mg/kg via the penile vein at 5.5 hours",2.6 ± 0.6 mL/min/g
same,renal blood flow,"[2]; CPL-treated mice, 10 mg/kg (Example 15)",increased blood flow
same,Renal Arterial Blood Flow (RBF),"[2]; Control (Sham) mice, 10 mg/kg",without effect
